Experimental data taken from patent publication US20250188417A1, “CARDIOMYOCYTES AND COMPOSITIONS AND METHODS FOR PRODUCING THE SAME” (President and Fellows of Harvard College, priority 2021, published 2025).
“Also recorded” adds a separate entry of the source.

Assays:
[1] = tested on: Gibco iPS-CM; test: Western blot of p53 after Torin1 treatment; assay type: cell-based, human; settings: Torin1 10, 50 or 200 nM for 7 days
Method: (§1) FIG. 14A provides representative western blot of p53, phospho-53, p21 (CDKN1a), GATA4, NKX2.5, and β-tubulin from Gibco iPS-CM lysates treated with 0 (DMSO), 10, 50, or 200 nM Torin1 for 7 days starting ˜2 days after onset of beating. Cells harvested on final day of treatment. FIG. 14B provides cell cycle analysis showing percentage of TNNT2+ BJRiPS-CMs in G0, G1 or S/G2/M phases after treatment with vehicle (DMSO, dimethylsulfoxide), pifithrin-α (10 μM) for 1 week, Torin1 (200 nM) for 7 days or simultaneous treatment with pifithrin-α (10 μM) and Torin1 (200 nM) for 7 days starting ˜2 days after onset of beating. n=3 per group, *p<0.05, **p<0.01, ***p<0.001, ****p<0.0001 by two-way ANOVA with Tukey's multiple comparisons test. FIG. 14C provides representative western blot of p53, TNNI3, p21, and β-tubulin from BJRiPS-derived cardiomyocyte lysates treated with control (DMSO), Torin1 (200 nM), pifithrin-α (10 PM) or Torin1 (200 nM)+pifithrin-α (10 μM) for 7 days beginning ˜2 days after onset of beating. Cells harvested on final day of treatment.

[2] = tested on: PSC-CMs; settings: inhibition of mTOR signaling during late differentiation; previously suggested; cited from earlier work
[3] = tested on: BJRiPS-CMs; test: Sarcomere length by immunostaining; assay type: cell-based, human; settings: Torin1 200 nM×7 days versus control; unpaired t-test; FIG. 11H
Method: (§2) FIG. 11A provides qPCR of selected sarcomere genes (MYH6, MYH7, TNNT2, TNNI3) iPSC-derived cardiomyocytes after treatment with Torin1 (10 nM, 50 nM, or 200 nM) or vehicle control (0.02% DMSO) for 7 days starting ˜2 days after onset of beating. n=3 per condition, *p<0.05, ****p<0.001 by two-way ANOVA with Tukey's multiple comparisons test, BJRiPS-CMs. FIG. 11B provides representative of western blot analysis of TNNT2 and TNNI3 after Torin1 treatment for 7 days starting ˜2 days after onset of beating, β-tubulin depicted as loading control, Gibco iPS-CMs. […] FIG. 11D provides representative image of MTF in diastole and systole, with schematic of MTF on side view in diastole and systole. FIG. 11E provides representative force versus time plot of muscular thin film (MTF) seeded with iPSC-derived cardiomyocytes treated with Torin1 (200 nM) or vehicle for 7 days starting ˜2 days after onset of beating, BJRiPS-CMs. […] FIG. 11G provides representative immunostained images showing cardiomyocytes treated with or without Torin1 (200 nM×7 days), blue=DAPI, green=alpha-actinin, yellow=F-actin, magenta=TNNT2, BJRiPS-CMs, scale bar=10 μm. […] DMSO, dimethylsulfoxide; TBP, TATA-binding protein.

[4] = tested on: iPSC-derived cardiomyocytes; test: Muscular thin film (MTF) contractility; assay type: cell-based, human; settings: Torin1 200 nM for 7 days; muscular thin films
Method: as §2

[5] = tested on: iPSC-derived cardiomyocytes (CMs); test: Quiescence, cell cycle and TNNT2+ flow cytometry after Torin1 treatment; assay type: cell-based, human
Method: FIG. 10A provides a schematic of a differentiation protocol, with Torin1 treatment performed for 7 days starting ˜2 days after onset of beating, unless otherwise noted. FIG. 10B provides a western analysis of phospho-S6 and phospho-Akt at baseline and 30 minutes, and 2, 4, 10, 24, and 48 hours after a single treatment of iPSC-derived CMs with Torin1 (200 nM), BJRiPS-CMs. […] Torin1 treatment started on day 9, approximately 2 days after onset of CM beating, BJRiPS-CMs, n=3 per group per time point. […] DMSO, dimethylsulfoxide; IWP-4, inhibitor of Wnt production-4; RI, ROCK (Rho-associated, coiled coil containing protein kinase) inhibitor (Y-27632); RPMI, Roswell Park Memorial Institute 1640 medium.

[6] = tested on: BJRiPS-CMs; test: qPCR of sarcomere genes and ion channels after Torin1 treatment; assay type: cell-based, human
Method: FIG. 11A provides qPCR of selected sarcomere genes (MYH6, MYH7, TNNT2, TNNI3) iPSC-derived cardiomyocytes after treatment with Torin1 (10 nM, 50 nM, or 200 nM) or vehicle control (0.02% DMSO) for 7 days starting ˜2 days after onset of beating. n=3 per condition, *p<0.05, ****p<0.001 by two-way ANOVA with Tukey's multiple comparisons test, BJRiPS-CMs. FIG. 11B provides representative of western blot analysis of TNNT2 and TNNI3 after Torin1 treatment for 7 days starting ˜2 days after onset of beating, β-tubulin depicted as loading control, Gibco iPS-CMs. […] FIG. 11D provides representative image of MTF in diastole and systole, with schematic of MTF on side view in diastole and systole. […]
FIG. 13A provides qPCR of selected ion channels (KCNJ2, CACNA1c, RY2, ATP2a2, SCN5a, HCN4) of iPSC-derived cardiomyocytes after treatment with Torin1 (10 nM or 200 nM) or vehicle control (0.02% DMSO) for 7 days starting ˜2 days after onset of beating. n=3 per group, *p<0.05, ****p<0.001 by two-way ANOVA with Tukey's multiple comparisons test, BJRiPS line. FIG. 13B provides flow cytometry analysis of mean fluorescence intensity of Kir2.1 (encoded by KCNJ2) after Torin1 treatment for 7 days starting ˜2 days after onset of beating. n=3 per group, *p<0.01 by unpaired t-test, BJRiPS line. […]

[7] = tested on: BJRiPS-CMs; test: Seahorse Mito Stress Test oxygen consumption rate; assay type: cell-based, human; settings: Torin1 200 nM×7 days; normalized to baseline
Method: FIG. 12A provides a profile of average oxygen consumption rate normalized to baseline versus time as evaluated by the Seahorse Mito Stress Test. Open circles=control (n=70 wells), closed squares=Torin1 (69 wells, 200 nM×7 days; BJRiPS-CMs replated into Seahorse plate for 24-48 hours prior to assay), data from two independent experiments combined. […] FIG. 12F provides qPCR of selected genes associated with fatty acid metabolism (PPARGC1a (PGC1α), CD36, SLC27A1 (FATP1), SLC27A6 (FATP6), and LPIN1) or glucose metabolism (GLUT1, GLUT4, PFK, and PYGM) of BJRiPS-CMs after treatment with Torin1 (10 nM, 50 nM, or 200 nM) or vehicle control (0.02% DMSO) for 7 days starting ˜2 days after onset of beating. *p<0.05, **p<0.01, ***p<0.001, ****p<0.0001 by two-way ANOVA with Tukey's multiple comparison's test, n=3 per group. DMSO, dimethylsulfoxide; FCCP, 2-[2-[4-(trifluoromethoxy)phenyl]hydrazinylidene]-propanedinitrile.

[8] = tested on: UCSD-CMs; test: FluoVolt action potential profile; assay type: cell-based, human
Method: FIG. 13A provides qPCR of selected ion channels (KCNJ2, CACNA1c, RY2, ATP2a2, SCN5a, HCN4) of iPSC-derived cardiomyocytes after treatment with Torin1 (10 nM or 200 nM) or vehicle control (0.02% DMSO) for 7 days starting ˜2 days after onset of beating. n=3 per group, *p<0.05, ****p<0.001 by two-way ANOVA with Tukey's multiple comparisons test, BJRiPS line. FIG. 13B provides flow cytometry analysis of mean fluorescence intensity of Kir2.1 (encoded by KCNJ2) after Torin1 treatment for 7 days starting ˜2 days after onset of beating. n=3 per group, *p<0.01 by unpaired t-test, BJRiPS line. […] FIG. 13D provides representative images showing cell segmentation performed automatically by the CyteSeer software. Blue=Hoechst stain, Green=FluoVolt. […] CTD25 (25% duration of the calcium transient, or duration at 25% decline from maximum amplitude), CTD75 (75% duration of the calcium transient, or duration at 75% decline from maximum amplitude), T75-25 (time for voltage to decay from 75% to 25% of maximum). […] For Fluovolt data, control n=531 cells, Torin1 n=315 cells, analysis by unpaired t-test.

[9] = tested on: BJRiPS-CMs; test: Mitochondrial polarization (MitoProbe JC-1); assay type: cell-based, human; settings: Torin1 200 nM for 7 days
[10] = tested on: BJRiPS-CMs; test: Western blot and densitometry (MDM2, p53, TNNI3) and cell cycle analysis of BJRiPS-derived cardiomyocytes; assay type: cell-based, human
Method: FIG. 6A provides a schematic showing proposed mechanism of cardiomyocyte maturation. T3, triiodothyronine. […] FIG. 6C provides representative Western blot of MDM2, p53, TNNI3, and β-tubulin from BJRiPS-derived cardiomyocyte lysates treated with control (DMSO), nutlin-3a Å˜24 hours (10 μmol/L), Torin1 Å˜7 days (200 nmol/L), or Torin1 Å˜7 days (200 nmol/L)+nutlin-3a (10 μmol/L) for 24 hours beginning ≈2 days after onset of beating (nutlin-3a was only administered during the first 24 hours of Torin1 treatment). Cells harvested on final day of treatment, BJRiPS-CMs. […] DMSO indicates dimethylsulfoxide; mTOR, mechanistic target of rapamycin; and TNNT2+ BJRiPS-CMs, troponin T2, cardiac type-positive BJ fibroblast-derived RNA-induced pluripotent stem cell-derived cardiomyocytes.
as §1

[11] = tested on: cardiomyocytes; test: Flow cytometry in 2D culture (TNNT2, MitoTracker Red CMXRos, superoxide signal); assay type: cell-based, human; settings: FACS, FIG. 8
Source text: FACS N=3/group, MitoTracker Red CMXRos flow cytometry, 1-way ANOVA with Tukey's multiple comparisons test.
Reactive oxygen species may regulate cardiomyocyte maturation. FACS, n=3/group.

[12] = tested on: iPSC-CMs; test: Flow cytometry of marker expression and live cells in iPSC-CMs treated in 3D culture; assay type: cell-based, human; settings: for percentage of TNNT2+ iPSC-CMs expressing Kir2.1: FIG. 2E / FIG. 3A; for mean fluorescence intensity (MFI) of Kir2.1: FIG. 2F / FIG. 3B; for % of p53+ TNNT2+ iPSC-CMs: FIG. 2G / FIG. 3C; for mean fluorescence intensity of p53: FIG. 3D; for expression of Kir2.1 / expression of p53: treatment of iPSC-CMs in 3D culture
Method: (§3) The UCSD142i-86-1 cell line was used to generate preliminary data. UCSD142i-86-1 cells were differentiated into cardiomyocytes according to previously published protocols (9) adapted to three-dimensional culture in the laboratory. Two days after onset of beating (around day 9 of differentiation), cardiomyocytes were treated with vehicle (DMSO) or different concentrations of quercetin for different time periods. Cells were harvested for qPCR, western, or flow cytometry at different time points.

[13] = tested on: senescent tumor cells; settings: literature reference; cited from earlier work
[14] = tested on: iPSC-CMs; test: qPCR of PPARGC1a mRNA in iPSC-CMs treated in 3D culture; assay type: cell-based, human; settings: 200 μM for 3 days, FIG. 5
Method: as §3

CCC(=O)N1CCN(c2ccc(-n3c(=O)ccc4cnc5ccc(-c6cnc7ccccc7c6)cc5c43)cc2C(F)(F)F)CC1 [Torin1]
p53 expression [1]: increases | cellular quiescence [2]: induces | maturation of cardiomyocytes [2]: enhances | sarcomere length [3]: n.s | contractility [4]: enhances | cellular quiescence ([5]; Torin1 for 7 days starting about 2 days after onset of beating): increases | percentage of TNNT2+ CMs out of live cell population ([5]; flow cytometry, Gibco iPS-CMs, one-way ANOVA, FIG. 10D): n.s. | expression selected ion channels ([6]; Torin1 10 nM or 200 nM for 7 days): increases | expression of sarcomere genes (MYH6, MYH7, TNNT2, TNNI3) ([6]; Torin1 10, 50 or 200 nM for 7 days): increases | oxygen consumption rate [7]: increases | peak rise time of the action potential profile ([8]; FluoVolt, FIG. 13F): increases | downstroke velocity of the action potential profile ([8]; FluoVolt, FIG. 13G): increases | CTD25 time ([8]; FluoVolt, versus control, unpaired t-test, FIG. 13H): n.s. | plateau phase of the action potential profile ([8]; representative profile versus control, FIG. 13E): more prolonged | mitochondrial polarization [9]: increases

COc1ccc(C2=N[C@@H](c3ccc(Cl)cc3)[C@@H](c3ccc(Cl)cc3)N2C(=O)N2CCNC(=O)C2)c(OC(C)C)c1 [nutlin-3a]
TNNI3 expression, effect together with Torin1 ([10]; nutlin-3a 10 μmol/L during first 24 hours of Torin1 200 nmol/L for 7 days): synergistic effect | p53 (Western analysis) ([10]; nutlin-3a 10 μmol/L for 24 hours): upregulation | TNNI3 expression ([10]; nutlin-3a 10 μmol/L for 24 hours, about 2 days after onset of beating, Western densitometry): enhances | mean fluorescence intensity of superoxide signal [11]: increases | percentage of TNNT2+ iPSC-CMs ([12]; 3D culture, flow cytometry, FIG. 2A): increases | mean fluorescence intensity (MFI) of TNNT2 ([12]; 3D culture, flow cytometry, FIG. 2B): increases | % of TNNI3+ ([12]; 3D culture, flow cytometry, FIG. 2C): increases | mean fluorescence intensity of TNNI3 ([12]; 3D culture, flow cytometry, FIG. 2D): increases | percentage of TNNT2+ iPSC-CMs expressing Kir2.1 ([12]; 3D culture, flow cytometry): increases | mean fluorescence intensity (MFI) of Kir2.1 ([12]; 3D culture, flow cytometry): increases | % of p53+ TNNT2+ iPSC-CMs ([12]; 3D culture, flow cytometry): increases | mean fluorescence intensity of p53 ([12]; 3D culture, flow cytometry): increases | expression of Kir2.1 [12]: increases | expression of p53 [12]: increases

Cc1ccc(C(=O)Cn2c3c(sc2=N)CCCC3)cc1 [pifithrin-α]
effects of Torin1 (cell cycle, TNNI3) ([10]; pifithrin-α 10 μM with Torin1 200 nM for 7 days): inhibited

O=c1c(O)c(-c2ccc(O)c(O)c2)oc2cc(O)cc(O)c12 [quercetin]
apoptosis in senescent tumor cells [13]: can induce apoptosis | mRNA expression of PPARGC1a [14]: increases; also recorded: significantly increased | percentage of live cells ([12]; 200 μM, 2 or 5 day treatment, 3D culture, flow cytometry, FIG. 4A): decreases | percentage of TNNT2+ iPSC-CMs expressing Kir2.1 ([12]; 3D culture, flow cytometry): increases | mean fluorescence intensity (MFI) of Kir2.1 ([12]; 3D culture, flow cytometry): increases | % of p53+ TNNT2+ iPSC-CMs ([12]; 3D culture, flow cytometry): increases | mean fluorescence intensity of p53 ([12]; 3D culture, flow cytometry): increases | iPSC-CM maturation ([12]; 3D suspension culture, preliminary data): can enhance | percentage of TNNT2+ cells out of live cells (cardiomyocytes) ([12]; 2 day treatment at 20 or 200 μM, 3D culture, flow cytometry, FIG. 4B): increases | expression of Kir2.1 [12]: increases | expression of p53 [12]: increases
